Key:
Format in all cases: in vivo, Swiss-Webster mice
lymphocytes = assay: Lymphocytes by complete blood count, once daily dosing 3 or 4 days; conditions: mice, oral gavage, blood 6 h after final dosing, CBC
Method: (§1) To examine the effect of compounds and methods of the present invention on increasing white blood cells, the following studies were performed. In one series of experiments, male Swiss-Webster mice were administered various compounds of the present invention via oral gavage using a ball-tipped gavage needle. Animals treated by oral gavage received a 10 ml/kg volume of either 0.5% carboxymethyl cellulose (CMC) with 0.1% Polysorbate 80 (vehicle control) or various doses (10-100 mg/kg) of a compound of the present invention in 0.5% CMC with 0.1% Polysorbate 80. Animals were dosed once daily for 3 or 4 days. Six hours after the final dosing, 200 μl blood samples were collected and total white blood cell, neutrophil, and lymphocyte levels were measured by complete blood count (CBC) using a CellDyn cell analyzer (Abbott Laboratories).

neutrophils [1] = assay: Neutrophils (Mac-1+/Gr-1+) in blood by FACS analysis; conditions: mice, oral gavage, blood 6 h after final dosing
Method: (§2) To examine the effect of compounds and methods of the present invention on hematopoietic progenitor cell (HPC) and neutrophil levels, the following studies were performed. Male Swiss-Webster mice were administered various compounds of the present invention via oral gavage using a ball-tipped gavage needle. Animals treated by oral gavage received a 10 ml/kg volume of either 0.5% carboxymethyl cellulose (CMC) with 0.1% Polysorbate 80 (vehicle control) or various doses (10-100 mg/kg) of a compound of the present invention in 0.5% CMC with 0.1% Polysorbate 80. Animals were dosed once daily for 3 or 4 days.
(§3) Six hours after the final dosing, 200 μl blood samples were collected for detection of hematopoietic progenitor cells (HPCs) and neutrophils by FACS analysis using methods previously described. (See, e.g., Wang et al. (1997) J Leukoc Biol 62 503-9 and Legasse et al. (1996) J Immunol Methods 197:139-50.) Briefly, leukocytes and progenitor cells were isolated from whole blood samples following erythrocyte depletion using red blood cell lysis buffer (eBioscience) according to the manufacturer's instructions. The remaining cells were incubated for one hour with monoclonal antibodies directed against mouse Sca-1 and mouse c-Kit (cell surface markers for HPCs, BD Pharmingen), or mouse Mac-1 and mouse Gr-1 (cell surface markers for murine neutrophils, BD Pharmingen). Following incubation with the monoclonal antibodies, the cells were washed three times with sort buffer (PBS, 1% fetal bovine serum) and resuspended in sort buffer containing 50 μg/ml of propidium iodide. Samples were then analyzed for the presence and quantitation of HPCs and neutrophils by flow cytometry (FACS Calibur, Becton Dickinson). The cytometer was set to acquire 10 000 events. Two or three blood samples obtained from each animal were analyzed and the average recorded. Hematopoietic progenitor cells were determined as double positive Sca-1+/c-Kit+ cells and neutrophils were determined as double positive Mac-1+/Gr-1+ cells.

[2] = tested on: neutrophils in bone marrow; assay: Neutrophils in bone marrow by FACS analysis; conditions: mice, oral gavage, tibia bone marrow 6 h after final dosing
Method: as §3
(§4) To examine the effect of compounds and methods of the present invention on hematopoietic progenitor cell (HPC) and neutrophil levels in bone marrow, the following studies were performed. Male Swiss-Webster mice were administered various compounds of the present invention via oral gavage using a ball-tipped gavage needle. Animals treated by oral gavage received a 10 ml/kg volume of either 0.5% carboxymethyl cellulose (CMC) with 0.1% Polysorbate 80 (vehicle control) or various doses (10-100 mg/kg) of a compound of the present invention in 0.5% CMC with 0.1% Polysorbate 80. Animals were dosed once daily for 3 or 4 days. Six hours after the final dosing, bone marrow samples were taken from one tibia of each animal and suspended in buffer (PBS with 1% fetal bovine serum). Bone marrow suspensions were then filtered through nylon filters to remove stromal cells. Following filtration, the remaining cells were counted manually using a hemocytometer. Detection and quantitation of HPCs and neutrophils were performed by FACS analysis as described above in Example 1.

[3] = tested on: total white blood cell (WBC); assay: Total white blood cells by complete blood count, once daily dosing 3 or 4 days; conditions: mice, oral gavage, blood 6 h after final dosing
Method: as §1

[4] = tested on: hematopoietic progenitor cells (HPCs); assay: Hematopoietic progenitor cells (Sca-1+/c-Kit+) in blood by FACS analysis; conditions: mice, oral gavage, blood 6 h after final dosing
Method: as §2, §3

neutrophils [5] = assay: Neutrophils by complete blood count, once daily dosing 3 or 4 days; conditions: mice, oral gavage, blood 6 h after final dosing, CBC
Method: as §1

[6] = tested on: hematopoietic progenitor cells (HPCs) in bone marrow; assay: Hematopoietic progenitor cells in bone marrow by FACS analysis; conditions: mice, oral gavage, tibia bone marrow 6 h after final dosing
Method: as §3, §4

[7] = 100 mg/kg once daily for 4 days

## COc1ccc(Oc2ccc3c(O)c(C(=O)NCC(=O)O)ncc3c2)cc1 [Compound A, {[4-Hydroxy-7-(4-methoxy-phenoxy)-isoquinoline-3-carbonyl]-amino}-acetic acid]
lymphocytes; 60 mg/kg once daily for 3 days
  Lymphocytes: 7.82 10^3 cells/μl
  Lymphocytes % Increase Over Control: 14%
lymphocytes; [7]
  Lymphocytes: 8.30 10^3 cells/μl
  Lymphocytes % Increase Over Control: 8%
Neutrophils [1]; 60 mg/kg once daily for 3 days
  Blood Neutrophils: 200 cells/μl
  Blood Neutrophils Fold Increase Over Control: 2.0 fold
  Percent Blood Neutrophils: 2.3 % gated cells
  Percent Blood Neutrophils Fold Increase Over Control: 1.6 fold
Neutrophils [1]; [7]
  Blood Neutrophils: 1,083 cells/μl
  Blood Neutrophils Fold Increase Over Control: 6.1 fold
  Percent Blood Neutrophils: 11.3 % gated cells
  Percent Blood Neutrophils Fold Increase Over Control: 3.4 fold
[2]; 60 mg/kg once daily for 3 days
  Percent Bone Marrow Neutrophils: 33.4 % gated cells
  Percent Bone Marrow Neutrophils Fold Increase Over Control: 1.1 fold
[2]; [7]
  Percent Bone Marrow Neutrophils: 33.7 % gated cells
  Percent Bone Marrow Neutrophils Fold Increase Over Control: 1.3 fold
[3]; 60 mg/kg once daily for 3 days
  Total WBC: 8.66 10^3 cells/μl
  Total WBC % Increase Over Control: 12%
[3]; [7]
  Total WBC: 9.62 10^3 cells/μl
  Total WBC % Increase Over Control: 14%
[4]; 60 mg/kg once daily for 3 days
  Blood HPCs: 76 cells/μl
  Blood HPCs Fold Increase Over Control: 1.7 fold
  Percent Blood HPCs: 0.9 % gated cells
  Percent Blood HPCs Fold Increase Over Control: 1.4 fold
[4]; [7]
  Blood HPCs: 125 cells/μl
  Blood HPCs Fold Increase Over Control: 7.4 fold
  Percent Blood HPCs: 1.3 % gated cells
  Percent Blood HPCs Fold Increase Over Control: 4.1 fold
Neutrophils [5]; 60 mg/kg once daily for 3 days
  Neutrophils: 0.78 10^3 cells/μl
  Neutrophils % Increase Over Control: 18%
Neutrophils [5]; [7]
  Neutrophils: 1.22 10^3 cells/μl
  Neutrophils % Increase Over Control: 94%
[6]; 60 mg/kg once daily for 3 days
  Percent Bone Marrow HPCs: 5.1 % gated cells
  Percent Bone Marrow HPCs Fold Increase Over Control: 1.3 fold
[6]; [7]
  Percent Bone Marrow HPCs: 6.7 % gated cells
  Percent Bone Marrow HPCs Fold Increase Over Control: 1.5 fold

## Cc1cccc(C)c1Oc1ccc2c(C#N)nc(C(=O)NCC(=O)O)c(O)c2c1 [Compound C]
lymphocytes; 20 mg/kg once daily for 3 days
  Lymphocytes: 10.63 10^3 cells/μl
  Lymphocytes % Increase Over Control: 117%
lymphocytes; 20 mg/kg once daily for 4 days
  Lymphocytes: 17.97 10^3 cells/μl
  Lymphocytes % Increase Over Control: 192%
lymphocytes; 60 mg/kg once daily for 3 days
  Lymphocytes: 12.70 10^3 cells/μl
  Lymphocytes % Increase Over Control: 159%
lymphocytes; 60 mg/kg once daily for 4 days
  Lymphocytes: 22.77 10^3 cells/μl
  Lymphocytes % Increase Over Control: 270%
Neutrophils [1]; 20 mg/kg once daily for 3 days
  Blood Neutrophils: 1,375 cells/μl
  Blood Neutrophils Fold Increase Over Control: 2.8 fold
  Percent Blood Neutrophils: 11.6 % gated cells
  Percent Blood Neutrophils Fold Increase Over Control: 1.2 fold
Neutrophils [1]; 20 mg/kg once daily for 4 days
  Blood Neutrophils: 1,067 cells/μl
  Blood Neutrophils Fold Increase Over Control: 2.0 fold
  Percent Blood Neutrophils: 15.8 % gated cells
  Percent Blood Neutrophils Fold Increase Over Control: 1.5 fold
Neutrophils [1]; 60 mg/kg once daily for 3 days
  Blood Neutrophils: 2,487 cells/μl
  Blood Neutrophils Fold Increase Over Control: 5.1 fold
  Percent Blood Neutrophils: 17.6 % gated cells
  Percent Blood Neutrophils Fold Increase Over Control: 1.8 fold
Neutrophils [1]; 60 mg/kg once daily for 4 days
  Blood Neutrophils: 2,933 cells/μl
  Blood Neutrophils Fold Increase Over Control: 5.5 fold
  Percent Blood Neutrophils: 12.2 % gated cells
  Percent Blood Neutrophils Fold Increase Over Control: 1.2 fold
[2]; 20 mg/kg once daily for 3 days
  Percent Bone Marrow Neutrophils: 47.1 % gated cells
  Percent Bone Marrow Neutrophils Fold Increase Over Control: 1.2 fold
[2]; 60 mg/kg once daily for 3 days
  Percent Bone Marrow Neutrophils: 41.3 % gated cells
  Percent Bone Marrow Neutrophils Fold Increase Over Control: 1.0 fold
[3]; 20 mg/kg once daily for 3 days
  Total WBC: 11.80 10^3 cells/μl
  Total WBC % Increase Over Control: 117%
[3]; 20 mg/kg once daily for 4 days
  Total WBC: 18.83 10^3 cells/μl
  Total WBC % Increase Over Control: 167%
[3]; 60 mg/kg once daily for 3 days
  Total WBC: 14.50 10^3 cells/μl
  Total WBC % Increase Over Control: 166%
[3]; 60 mg/kg once daily for 4 days
  Total WBC: 24.33 10^3 cells/μl
  Total WBC % Increase Over Control: 245%
[4]; 20 mg/kg once daily for 3 days
  Blood HPCs: 403 cells/μl
  Blood HPCs Fold Increase Over Control: 2.7 fold
  Percent Blood HPCs: 3.4 % gated cells
  Percent Blood HPCs Fold Increase Over Control: 1.6 fold
[4]; 20 mg/kg once daily for 4 days
  Blood HPCs: 155 cells/μl
  Blood HPCs Fold Increase Over Control: 1.9 fold
  Percent Blood HPCs: 0.9 % gated cells
  Percent Blood HPCs Fold Increase Over Control: 0.7 fold
[4]; 60 mg/kg once daily for 3 days
  Blood HPCs: 486 cells/μl
  Blood HPCs Fold Increase Over Control: 3.3 fold
  Percent Blood HPCs: 3.4 % gated cells
  Percent Blood HPCs Fold Increase Over Control: 1.5 fold
[4]; 60 mg/kg once daily for 4 days
  Blood HPCs: 336 cells/μl
  Blood HPCs Fold Increase Over Control: 4.1 fold
  Percent Blood HPCs: 1.4 % gated cells
  Percent Blood HPCs Fold Increase Over Control: 1.2 fold
Neutrophils [5]; 20 mg/kg once daily for 3 days
  Neutrophils: 0.97 10^3 cells/μl
  Neutrophils % Increase Over Control: 142%
Neutrophils [5]; 20 mg/kg once daily for 4 days
  Neutrophils: 0.77 10^3 cells/μl
  Neutrophils % Increase Over Control: −4%
Neutrophils [5]; 60 mg/kg once daily for 3 days
  Neutrophils: 1.73 10^3 cells/μl
  Neutrophils % Increase Over Control: 333%
Neutrophils [5]; 60 mg/kg once daily for 4 days
  Neutrophils: 1.37 10^3 cells/μl
  Neutrophils % Increase Over Control: 71%
[6]; 20 mg/kg once daily for 3 days
  Percent Bone Marrow HPCs: 4.9 % gated cells
  Percent Bone Marrow HPCs Fold Increase Over Control: 1.5 fold
[6]; 20 mg/kg once daily for 4 days
  Percent Bone Marrow HPCs: 1.4 % gated cells
  Percent Bone Marrow HPCs Fold Increase Over Control: 1.2 fold
[6]; 60 mg/kg once daily for 3 days
  Percent Bone Marrow HPCs: 6.1 % gated cells
  Percent Bone Marrow HPCs Fold Increase Over Control: 1.8 fold
[6]; 60 mg/kg once daily for 4 days
  Percent Bone Marrow HPCs: 1.8 % gated cells
  Percent Bone Marrow HPCs Fold Increase Over Control: 1.5 fold
